Earlier results as cited in patent US20100125094A1, “PY[…] NICOTINIC ACETYLCHOLINE RECEPTORS” (AUSPEX PHARMACEUTICALS, INC., priority 2008, published 2010).

CN1CCCC1c1cccnc1 (centres unmarked) [Nicotine, 3-(1-methyl-pyrrolidin-2-yl)-pyridine]
half life of nicotine in the body (in the body): around two
time for nicotine to reach the brain (when inhaled, on average): about seven
